This note sets out measurements from patent publication US11447471B2, “α,β-unsaturated amide compound” (KYOWA KIRIN CO., LTD., priority 2017, dated 2022).

Assay type in all cases: cell-based
For assay [1], the system named is OVTOKO cells. Briefly: Cell growth inhibitory effect on human ovarian cancer cell line (cell counting kit 8, 6 days). As to conditions: 144 h, 6 days incubation. In short, it runs like this:
(§1)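 Cells in RPMI1640 with 10% FBS plated at 500 cells/well (OVTOKO 250/well) and cultured one day at 37° C, 5% CO2. Serially diluted compound added (final DMSO 0.1%) for 6 days; viable cells measured at addition and day 6 with CCK-8, absorbance 450 nm. GI50 derived from growth inhibition rate.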
A general note: Tetrazolium assays rely on reduction of a dye to a coloured formazan, in cell work by metabolically active cells.

Assay [2] concerns NCI-H226 cells. As to the kind of experiment: Cell growth inhibitory effect on human mesothelioma cell line (cell counting kit 8, 6 days). As to conditions: NCI-H226, 144 h. The method, boiled down:
as §1

Assay [3] has as its system NCI-H322 cells. As to the kind of experiment: Cell growth inhibitory effect on human lung cancer cell line (cell counting kit 8, 6 days). As to conditions: 144 h; human lung cancer cell line NCI-H322, 6 days incubation. The method, boiled down:
as §1

Assay [4] has as its system HuH28 cells. Briefly: Cell growth inhibitory effect on human liver cancer cell line (cell counting kit 8, 6 days). As to conditions: 144 h; human liver cancer cell line HuH28, 6 days incubation. The source says: NCI-H226 cells, a human mesothelioma cell line (ATCC, CRL-5826), NCI-H322 cells, a human lung cancer cell line (the European Collection of Authenticated Cell Cultures, 95111734), OUTOKO cells, a human ovarian cancer cell line (JCRB cell bank, KRB1048) and […] were each subcultured by keeping the cell density under 80% in a RPMI1640 culture medium with 10% fetal bovine serum (FBS). NCI-H226 cells, NCI-H322 cells and SSP-25 cells were each suspended in the RPMI1640 culture medium mentioned above, and plated to a 96-well flat-bottom plate at 500 cells/well in each well, and incubated at 37° C. in an incubator with 5% CO2 for one day. After the incubation, the evaluation of cell growth inhibitory activity was started. OVTOKO cells were suspended in the RPMI1640 culture medium mentioned above, and plated to a 96-well flat-bottom plate at 250 cells/well in each well, and incubated it at 37° C. in an incubator with 5% CO2 for one day. After the incubation, the evaluation of the cell growth inhibitory activity was started. The next day, a test compound was serially diluted to 5 times of its final concentration in the RPM11640 culture medium mentioned above, and the diluted solution was added to each well. In this case, the final concentration of DMSO in each well was adjusted to 0.1%. After the test compound was added, cells were incubated at 37° C. in an incubator with 5% CO2 for 6 days. At the addition of the test compound and 6 days after the addition, the cell counting measurement was performed using a cell counting kit 8 (made by DOJINDO) according to a protocol equivalent to DOJINDO's recommendation. A reagent contained in the kit was added to each plate and color reaction was performed for 2 or 3 hours at 37° C. in an incubator with 5% CO2. After the reaction, an absorbance at wavelength of 450 nm was measured using a microplate reader. A growth inhibition rate was calculated according to the following formula, from which the concentration of a test compound at which cell growth was inhibited by 50% (GI50 value) was determined.

As for `C=CC(=O)NCc1ccc(N(C)c2ccc(C(F)(F)F)cc2)c2nc(C)oc12` [Compound 269, N-{(2-Methyl-4-[methyl{4-(trifluoromethyl)phenyl}amino]benzo[d]oxazol-7-yl)methyl}acrylamide], the GI50 (as a rule, the concentration giving 50% growth inhibition) was not above 3000 nM in assay [1], 100 to 1000 nM in assay [2], less than 1000 nM in assay [3] and less than 3000 nM in assay [4].
On the same counts, the results for `C=CC(=O)NCc1ccc(Oc2ccc(C(F)(F)F)cc2)c2nc(C)sc12` [Compound 256, N-([2-Methyl-4-{4-(trifluoromethyl)phenoxy}benzo[d]thiazol-7-yl]methyl)acrylamide] are not above 3000 nM, less than 100 nM, less than 1000 nM and less than 3000 nM.
The like results for `C=CC(=O)NCc1ccc(Oc2ccc(OC)cc2)c2nc(C)oc12` [Compound 280, N-[{4-(4-Methoxyphenoxy]-2-methylbenzo[d]oxazol-7-yl}methyl)acrylamide] were, in that order, not above 3000 nM, less than 100 nM, less than 1000 nM and less than 3000 nM.
For the molecule `C=CC(=O)NCc1ccc(Oc2ccc(C(F)(F)F)nc2)c2nc(C)sc12` [Compound 285, N-{(2-Methyl-4-[{6-(trifluoromethyl)pyridin-3-yl}oxy]benzo[d]thiazol-7-yl)methyl}acrylamide], the GI50 in assay [1] was not above 3000 nM; in assay [2], less than 100 nM; in assay [3], less than 1000 nM; in assay [4], less than 3000 nM.
